Assay results taken from patent US20240245647A1, “ISOMEROHYDROLASE INHIBITOR FOR TREATMENT OF ATROPHIC FORM OF AGE-RELATED MACULAR DEGENERATION AND STARGARDT DISEASE” (The Trustees of Columbia University in the City of New York, priority 2021, published 2024).

Biological target: T1, RPE65 (Mus musculus, UniProt Q91ZQ5)
T1 construct: from tissue; host or cells: eyes of living BALB/cJ mice
T1 sequence (Q91ZQ5 1-533): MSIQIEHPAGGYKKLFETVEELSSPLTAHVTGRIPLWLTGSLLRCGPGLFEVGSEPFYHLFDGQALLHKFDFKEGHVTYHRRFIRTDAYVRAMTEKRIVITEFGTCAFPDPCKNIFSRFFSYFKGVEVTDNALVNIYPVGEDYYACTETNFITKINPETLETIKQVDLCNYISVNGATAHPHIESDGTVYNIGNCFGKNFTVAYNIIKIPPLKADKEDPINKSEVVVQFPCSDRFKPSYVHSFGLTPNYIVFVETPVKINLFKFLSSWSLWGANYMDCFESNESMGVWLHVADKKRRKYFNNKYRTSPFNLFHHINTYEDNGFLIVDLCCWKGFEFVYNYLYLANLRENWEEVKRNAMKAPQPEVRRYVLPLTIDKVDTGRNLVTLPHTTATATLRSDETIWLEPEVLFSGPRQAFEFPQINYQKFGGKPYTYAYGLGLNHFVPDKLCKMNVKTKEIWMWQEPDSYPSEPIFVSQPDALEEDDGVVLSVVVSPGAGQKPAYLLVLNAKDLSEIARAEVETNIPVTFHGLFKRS
Experiment: Chromophore regeneration after photobleach, HPLC retinoid profile
Format: in vivo, BALB/cJ mice
Method: FIG. 4. Systemic injection of inhibitor RPE65-61 delays chromophore regeneration in BALB/cJ mice. Dark-adapted mice were injected with varying amounts of RPE65-61, and subjected to light-adaptation under 5000 lx of fluorescent light for 30 min. The eyes were harvested for HPLC retinoid profiling after 30 min of dark-adaptation, to measure levels of (FIG. 4A) 11-cis-RAL, (FIG. 4B) all-trans-RAL, and (FIG. 4C) all-transretinyl ester. (FIG. 4D) schematic representation of experimental design for RPE65-61 in vivo. Student's t-test. *P<0.05, **<0.01 and ***<0.001. (Mean±SEM).
Dark-adapted or light-exposed mice were sacrificed, and their eyes enucleated under dim red light. The whole eyes were homogenized with a glass grinder in lysis buffer [10 mM NH2OH, 50% ethanol, […] 2-(N-morpholino) ethanesulfonic acid, pH 6.5], incubated for 1 hr, and retinoids were extracted with hexane.
The ability of RPE65-61 to inhibit RPE65 in vivo was also investigated by determining chromophore regeneration after bleaching with 5,000 lux fluorescent light for 30 min. (FIG. 4).

## N=S(=O)(CCN)c1cccc(OCC2CCCCC2)c1 (racemic) [RPE65-61, (±)-(2-aminoethyl) (3-(cyclohexylmethoxy)phenyl) (imino)-λ^6-sulfanone]
0.5, 1 or 2 mg/kg injected, 5,000 lux 30 min
  chromophore regeneration after photobleach: delayed chromophore regeneration after photobleach in a dose-dependent manner
mouse, in vivo
  inhibition of 11-cis-retinal regeneration after photobleaching compared with CU-239: higher potency
  retinyl ester levels in treated mice: accumulate higher levels of retinyl esters
